Each molecule was assayed against 5-HT2A receptor (Homo sapiens, UniProt P28223) (assay: Assay for 5-HT2A receptor inverse agonist activity (NIH3T3-5-HT2A R cells, Bright-Glo luciferase, cell inhibition rate)). Settings: not given.
Sequence of 5-HT2A receptor (P28223 whole entry): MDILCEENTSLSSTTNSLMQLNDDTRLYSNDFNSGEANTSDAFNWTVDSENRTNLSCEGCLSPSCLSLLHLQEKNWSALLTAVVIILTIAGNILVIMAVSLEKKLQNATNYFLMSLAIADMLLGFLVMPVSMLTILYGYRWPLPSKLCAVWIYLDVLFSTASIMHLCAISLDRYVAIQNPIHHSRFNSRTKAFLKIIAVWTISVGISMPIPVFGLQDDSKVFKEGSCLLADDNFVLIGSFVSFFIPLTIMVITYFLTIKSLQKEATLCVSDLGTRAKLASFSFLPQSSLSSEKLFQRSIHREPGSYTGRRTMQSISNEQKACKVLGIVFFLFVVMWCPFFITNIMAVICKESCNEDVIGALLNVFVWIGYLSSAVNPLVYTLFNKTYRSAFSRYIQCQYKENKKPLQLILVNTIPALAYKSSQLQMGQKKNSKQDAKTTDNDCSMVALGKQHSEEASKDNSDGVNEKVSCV

Row | IC50 | Compound
1 | > 1000 nM | CN1CCC(N(Cc2ccc(F)cn2)C(=O)NCc2ccc(OCC3CC3(C)C)cn2)CC1 (stereo not shown) [Compound 4]
2 | > 1000 nM | CC(C)COc1ccc(CNC(=O)N(Cc2ccc3ncccc3c2)C2CCN(C)CC2)cc1 [Compound 7]
3 | > 1000 nM | CC(C)COc1ccc(CNC(=O)N(Cc2ccc3ncccc3c2)C2CCN(C)CC2)nc1 [Compound 8]
4 | 672 nM | CN1CCC(N(Cc2ccc(F)cn2)C(=O)NCc2ccc3nc[nH]c3c2)CC1 [Compound 11]
5 | 184 nM | CN1CCC(N(Cc2ccc(F)cn2)C(=O)NCc2ccc3c(c2)c(F)cn3C)CC1 [Compound 13]
6 | 41 nM | CN1CCC(N(Cc2ccc(F)cn2)C(=O)NCc2ccc3sccc3c2)CC1 [Compound 58]
7 | 86.1 nM | CN1CCC(N(Cc2ccc(F)cn2)C(=O)NCc2ccc3c(c2)C=CC3)CC1 [Compound 59]
8 | 64.4 nM | CN1CCC(N(Cc2ccc(F)cn2)C(=O)NCc2ccc3c(c2)CCC3)CC1 [Compound 60]
9 | 79.2 nM | CN1CCC(N(Cc2ccc(F)cn2)C(=O)NCc2ccc3ccccc3c2)CC1 [Compound 61]
10 | > 1000 nM | CN1CC2CCC(C1)C2N(Cc1ccc(F)cn1)C(=O)NCc1ccc(OCC(F)(F)F)nc1 (stereo not shown) [Compound 77]
11 | > 1000 nM | Cc1cc(CN(C(=O)NCc2ccc(OCC(F)(F)F)nc2)[C@@H]2CCN(C)C[C@@H]2F)nn1C [Compound 82A]
12 | 664 nM | Cc1cc(CN(C(=O)NCc2ccc(OCC(F)(F)F)nc2)[C@H]2CCN(C)C[C@H]2F)nn1C [Compound 82B]
13 | > 1000 nM | CN1CCC(N(Cc2ccc(F)cn2)C(=O)NCc2ccc3c(c2)c(C(F)(F)F)cn3C)CC1 [Compound 84]
14 | > 1000 nM | CN1CC[C@@H](N(Cc2ccc(F)cc2)C(=O)NCc2ccc3ncccc3c2)[C@@H](F)C1 [Compound 86A]
15 | 36.8 nM | CN1CC[C@H](N(Cc2ccc(F)cc2)C(=O)NCc2ccc3ncccc3c2)[C@H](F)C1 [Compound 86B]

Row | Compound | IC50
16 | CN1C2CCC1CC(N(Cc1ccc(F)cn1)C(=O)NCc1ccc(OCC(F)(F)F)nc1)C2 (stereo not shown) [Compound 79] | 771 nM

Same assay, conditions: 5-HT2A inverse agonist activity IC50 (nM), NIH3T3-5HT2A R cells, 120 h, luminescence

Row | Compound | IC50
17 | CN1CCC(N(Cc2ccc(F)cn2)C(=O)NCc2ccc(OCC(F)(F)F)nc2)C(C)(C)C1 (single isomer, unassigned) [Compound 49A] | 105 nM
18 | CN1CCC(N(Cc2ccc(F)cn2)C(=O)NCc2ccc(OCC(F)(F)F)nc2)C(C)(C)C1 (single isomer, unassigned) [Compound 49B] | > 1000 nM
19 | CN1CCC(N(Cc2ccc(F)cn2)C(=O)NCc2ccc(OCC(F)(F)F)nc2)C2(CC2)C1 (single isomer, unassigned) [Compound 50B] | 381 nM
20 | O=C(NCc1ccc(OCC(F)(F)F)nc1)N(Cc1ccc(F)cn1)C1CCNCC1F (single isomer, unassigned) [Compound 56A] | > 1000 nM
21 | O=C(NCc1ccc(OCC(F)(F)F)nc1)N(Cc1ccc(F)cn1)C1CCNCC1F (single isomer, unassigned) [Compound 56B] | 325 nM
22 | CCN1CC[C@@H](N(Cc2ccc(F)cn2)C(=O)NCc2ccc(OCC(F)(F)F)nc2)[C@@H](F)C1 (single isomer, unassigned) [Compound 69A] | > 1000 nM
23 | CCN1CC[C@H](N(Cc2ccc(F)cn2)C(=O)NCc2ccc(OCC(F)(F)F)nc2)[C@H](F)C1 (single isomer, unassigned) [Compound 69B] | 156 nM
24 | CC(C)N1CC[C@@H](N(Cc2ccc(F)cn2)C(=O)NCc2ccc(OCC(F)(F)F)nc2)[C@@H](F)C1 (single isomer, unassigned) [Compound 70A] | > 1000 nM
25 | CC(C)N1CC[C@H](N(Cc2ccc(F)cn2)C(=O)NCc2ccc(OCC(F)(F)F)nc2)[C@H](F)C1 (single isomer, unassigned) [Compound 70B] | 280 nM
26 | [2H]C([2H])([2H])N1CC[C@@H](N(Cc2ccc(F)cn2)C(=O)NCc2ccc(OCC(F)(F)F)nc2)[C@@H](F)C1 (single isomer, unassigned) [Compound 72A] | 416 nM
27 | [2H]C([2H])([2H])N1CC[C@H](N(Cc2ccc(F)cn2)C(=O)NCc2ccc(OCC(F)(F)F)nc2)[C@H](F)C1 (single isomer, unassigned) [Compound 72B] | 43.7 nM
28 | CN1CCC(N(Cc2ccc(F)cc2)C(=O)NCc2ccc(OCC(F)(F)F)nc2)C2(CC2)C1 (single isomer, unassigned) [Compound 83A] | 10.4 nM
29 | CN1CCC(N(Cc2ccc(F)cc2)C(=O)NCc2ccc(OCC(F)(F)F)nc2)C2(CC2)C1 (single isomer, unassigned) [Compound 83B] | 211 nM
30 | CN1CC[C@@H](N(Cc2ccc(F)cc2)C(=O)NCc2ccc3c(ccn3C)c2)[C@@H](F)C1 (single isomer, unassigned) [Compound 85A] | > 1000 nM
31 | CN1CC[C@H](N(Cc2ccc(F)cc2)C(=O)NCc2ccc3c(ccn3C)c2)[C@H](F)C1 (single isomer, unassigned) [Compound 85B] | 88.7 nM
32 | CN1CCC(N(Cc2ccc(F)cn2)C(=O)NCc2ccc3occc3c2)CC1 [Compound 57] | 51.9 nM

Each molecule was assayed against hERG potassium channels (Homo sapiens, UniProt Q12809) (assay: cell-based). Settings: not given.
Sequence of hERG potassium channels (Q12809 whole entry): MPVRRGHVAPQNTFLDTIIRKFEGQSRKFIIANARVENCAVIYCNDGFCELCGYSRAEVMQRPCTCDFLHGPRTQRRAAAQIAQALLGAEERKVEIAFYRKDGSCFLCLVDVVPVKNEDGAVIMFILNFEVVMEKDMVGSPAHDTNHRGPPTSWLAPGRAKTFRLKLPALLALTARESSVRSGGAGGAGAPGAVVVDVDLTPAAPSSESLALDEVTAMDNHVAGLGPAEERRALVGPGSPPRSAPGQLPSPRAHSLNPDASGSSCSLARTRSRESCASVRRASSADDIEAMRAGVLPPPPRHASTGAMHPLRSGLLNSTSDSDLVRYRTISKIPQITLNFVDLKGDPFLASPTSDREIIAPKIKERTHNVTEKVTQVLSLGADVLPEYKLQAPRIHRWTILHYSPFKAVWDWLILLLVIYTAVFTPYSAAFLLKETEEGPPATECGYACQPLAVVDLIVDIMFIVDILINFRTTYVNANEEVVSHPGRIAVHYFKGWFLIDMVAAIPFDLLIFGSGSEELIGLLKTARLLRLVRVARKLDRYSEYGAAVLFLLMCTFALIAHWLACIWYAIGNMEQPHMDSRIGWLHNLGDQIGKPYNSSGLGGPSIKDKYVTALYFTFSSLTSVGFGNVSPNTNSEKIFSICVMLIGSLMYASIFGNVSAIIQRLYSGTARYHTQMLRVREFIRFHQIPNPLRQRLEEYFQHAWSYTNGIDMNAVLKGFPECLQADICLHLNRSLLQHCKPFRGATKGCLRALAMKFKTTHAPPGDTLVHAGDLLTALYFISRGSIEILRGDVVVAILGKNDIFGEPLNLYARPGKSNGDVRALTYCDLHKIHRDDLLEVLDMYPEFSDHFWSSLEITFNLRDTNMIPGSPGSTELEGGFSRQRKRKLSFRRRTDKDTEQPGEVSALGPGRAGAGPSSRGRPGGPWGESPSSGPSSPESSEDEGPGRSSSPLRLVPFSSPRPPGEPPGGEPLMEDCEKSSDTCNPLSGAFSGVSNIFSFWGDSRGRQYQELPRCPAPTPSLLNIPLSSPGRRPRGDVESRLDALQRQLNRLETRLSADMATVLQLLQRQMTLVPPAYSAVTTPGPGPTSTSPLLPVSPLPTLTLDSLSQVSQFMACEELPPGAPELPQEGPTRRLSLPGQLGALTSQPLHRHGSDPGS

Row | Compound | IC50
33 | O=C(NCc1ccc(OCC(F)(F)F)nc1)N(Cc1ccc(F)cn1)C1CCNCC1F (single isomer, unassigned) [Compound 56A] | 15500 nM
34 | O=C(NCc1ccc(OCC(F)(F)F)nc1)N(Cc1ccc(F)cn1)C1CCNCC1F (single isomer, unassigned) [Compound 56B] | 12600 nM
35 | CC(C)COc1ccc(CNC(=O)N(Cc2ccc3ncccc3c2)C2CCN(C)CC2)cc1 [Compound 7] | 1320 nM
36 | CN1CCC(N(Cc2ccc(F)cn2)C(=O)NCc2ccc3occc3c2)CC1 [Compound 57] | 1440 nM
37 | CN1CCC(N(Cc2ccc(F)cn2)C(=O)NCc2ccc3c(c2)C=CC3)CC1 [Compound 59] | 1480 nM
